The test system of assay [1] is cortical neurons cultured from wild-type mice. In words: Immunoblotting analysis of various proteins in cultured cortical neurons (U18666A-induced changes). It is filed as cell-based. The protocol: (§1) Neuronal cultures. Cortical and hippocampal neurons were prepared from npc1+/+ and npc1−/− embryos at embryonic day 18 (E18); time-pregnant wild-type BALB/c or npc1+/− mice were obtained either from Charles River Laboratories (San Diego, Calif.) or from our breeding colony respectively. Neurons were cultured in NeuroBasal (GIBCO, Carlsbad, Calif.) with 10% bovine serum albumin (BSA), 2% B27, and 1% glutamine for three to four days before being used.
(§2) Treatment. For primary cultured neurons, chemicals (U18666A and inhibitors of various enzymes) were first dissolved in 10% DMSO before being diluted in cultured medium; final DMSO concentration was lower than 0.01%. For in vivo treatment, hydroxyfasudil monohydrochloride (Sigma) was dissolved in double-distilled H2O and injected subcutaneously at 10 mg/kg, twice a day from postnatal day 7 to day 28.
Immunoprecipitation and immunoblotting procedures. For immunoprecipitation, cultured cortical neurons were lysed in lysis buffer [0.05 M Tris base, 0.9% NaCl, pH 7.6, and 0.5% Triton X-100 plus Protease Inhibitors Cocktail (1:100; EMD Biosciences) and phosphatase inhibitor cocktails (1:500; Sigma)]. Lysates were centrifuged at 16,000×g for 30 min at 4° C. Supernatant were then cleared with a mixture of protein A/Gagarose beads (each 50%) for 1 h at 4 uC, and after a brief spin, pellets were discarded. A small portion of the supernatants was used as input. The reminder of the supernatant was immunoprecipitated overnight with control IgG or Tau1 antibodies. Immunoprecipitates were captured by incubation with protein A/G-agarose beads for 3 h at 4° C. After several washes, the beads were resuspended in 2×SDS sample buffer [4% sodium dodecyl sulfate (SDS), 100 mM Tris-HCl (pH 6.8), 10% b-mercaptoethanol, 20% glycerol and 0.2% bromophenol blue] and boiled for 10 min. The resulting proteins were separated by SDS-PAGE, and transferred to polyvinylidene difluoride membranes for immunoblotting using previously described protocols.
Because the p-p53Δ and p-p53 bands were very close in immunoblots and the former was the predominant band, p-p53Δ levels were used as an index of p-p53 degradation. Immunoprecipitation was used to determine whether p-p53 truncation affected its association with the microtubule-associated protein tau, a protein that is abundantly and exclusively expressed in axons. p53 labeled by either anti-p-p53 or anti-p53 antibodies was immunoprecipitated by Tau1 antibodies (FIG. 5B).
Increased levels of p-p53Δ and p-Mdm2 were quantified using the ImageJ program (National Institutes of Health, Bethesda, Md.). The quantified levels are contained in Table 1 below.
Background: A western blot detects proteins with antibodies after separation by electrophoresis.

The subject of assay [2] is hippocampal neurons cultured from wild-type mice. In words: Quantification of growth cone collapse in cultured neurons from wild-type mice (U18666A-induced). It is filed as cell-based. To be noted: for growth cone collapse (share of neurons): 1 μM U18666A for 18 h; for growth cone collapse: n=100 growth cones. On the procedure:
as §1, §2
(§3) Immunofluorescent staining. Hippocampal neurons were fixed with 4% paraformaldehyde in phosphate buffer (PB; pH 7.4) for 15 min. After washing with 1× phosphate buffer saline (PBS), cells were permeabilized with 0.05% Triton X-100 in 1×PBS for 15 min, and incubated with blocking buffer (3% BSA, 0.02% Triton X-100 in 1×PBS) for 15 min before being probed with primary antibodies. The following primary antibodies were used: anti-E6AP (1:1000), anti-phospho-p53 (1:250), anti-phospho-4EBP1 (1:1000), antiphospho-Mdm2 antibody (1:250), anti-phospho-p38 antibody (1:250), anti-RhoA antibody (1:1500). All primary antibodies were diluted in blocking buffer and incubated at 4° C. for 18 h. After six washes (6×10 min) with 1×PBS at room temperature, cells were incubated with secondary antibodies, Alexa488-anti-rabbit (1:500) or Alexa594-anti-mouse (1:500); both antibodies were diluted in blocking buffer and incubated at room temperature for one h. Cells were then washed with 1×PBS (6×10 min) and sealed with mounting medium (Vectashield; Vector Laboratories, Inc., Burlingame, Calif.) containing 49,69-diamidino-2-phenylindole (DAPI) to stain nuclei. Immunofluorescent signal was detected with a Nikon confocal microscope (Nikon TE 2000U with DEclipse C1 system; Melville, N.Y.).
(§4) Quantification of growth cone morphology and immunoreactivity. Confocal images were taken using the 60× oil-immersion objective. About 20-30 images were randomly selected from each culture dish (20 mm in diameter); at least four to six dishes from three to six independent culture preparations/experiments were used for each experimental group. Within an experiment, cultures used for different experimental groups and designed for comparison were stained simultaneously and imaged with the same acquisition parameters. Quantification was done blindly by multiple researchers. Growth cones with less than 1 filopodium were considered collapsed; 100 growth cones were-quantified for each experimental group. Image J software was used to quantify immunoreactivity intensity of p-p53 and RhoA in axons and growth cones; the “total integrated density” was used instead of “average intensity”. Briefly, individual growth cones were outlined manually and the total integrated density was measured using Image J software. For quantification of immunoreactivity in axons, a 50 μm fragment of axons from the neck of growth cones towards the cell body was selected and integrated density measured.

The subject of assay [3] is axons and growth cones of hippocampal neurons from wild-type mice. In words: Immunofluorescence quantification of protein levels in axons and growth cones of wild-type hippocampal neurons. It is filed as cell-based. On the procedure: as §1, §2, §3, §4
Another assay concerns hippocampal neurons. As to the kind of experiment: Filipin staining of cholesterol in cultured hippocampal neurons. It is filed as cell-based, mice. The conditions noted are these: 1 μM U18666A for 18 h. On the procedure: Filipin staining. […] After immunostaining with anti-E6-AP and anti-p-p53 antibodies and corresponding secondary antibodies conjugated with either Alexa Fluor H 594 or Alexa Fluor H 488, neurons were washed with 1×PBS and incubated in the dark with […] filipin in 1×PBS for 2 h at room temperature. Neuronal cultures were then washed again with 1×PBS before being examined with confocal microscopy.
Because axonal growth cone collapse in hippocampal neurons from npc1−/− mice was associated with decreased levels of p-p53, over-expression of wild-type p53 was tested to determine if it could reverse growth cone collapse. In this set of experiments, the amphiphilic amine and cholesterol transport inhibitor, U18666A, was used to induce a NPC-like phenotype in hippocampal neurons cultured from wild-type mice. U18666A has been used to induce NPC-like phenotype in various cultured cells, including neurons. Treatment with 1 μM U18666A for 18 h induced growth cone collapse in about 80% of hippocampal neurons prepared from wild-type mice and transfected with an EGFP-vector or a vector containing p53 with the R175H mutation (p53-R175H), a conformational mutation that is frequently found in tumor cells that lack p53 function (FIGS. 1D and E). […]

In assay [4] the test system is hippocampal neurons cultured from npc1−/− mice. In words: Growth cone collapse in hippocampal neurons cultured from npc1−/− mice. It counts as cell-based. To be noted: 10 μM Y-27632 for 18 h at DIV3; vehicle 80±2%; n=100 growth cones. The protocol:
as §1
(§5) Treatment. For primary cultured neurons, chemicals (U18666A and inhibitors of various enzymes) were first dissolved in 10% DMSO before being diluted in cultured medium; final DMSO concentration was lower than 0.01%. […]
(§6) Immunofluorescent staining. […] Immunofluorescent signal was detected with a Nikon confocal microscope (Nikon TE 2000U with DEclipse C1 system; Melville, N.Y.).
(§7) Quantification of growth cone morphology and immunoreactivity. […] Quantification was done blindly by multiple researchers. Growth cones with less than 1 filopodium were considered collapsed; 100 growth cones were-quantified for each experimental group. Image J software was used to quantify immunoreactivity intensity of p-p53 and RhoA in axons and growth cones; the “total integrated density” was used instead of “average intensity”. Briefly, individual growth cones were outlined manually and the total integrated density was measured using Image J software. […]

Assay [5] has the same test system. As to the kind of experiment: p-p53 immunoreactivity in axons and growth cones of npc1−/− hippocampal neurons. It counts as cell-based. The conditions noted are these: 10 μM Y-27632 for 18 h at DIV3. On the procedure: as §1, §5, §6, §7
Where [6] appears, read: DIV4 cortical neurons from wild-type mice, 5 μM U18666A, inhibitor pre-treatment 1 μM, DMSO = 100, n = 3-6.
The mark [7] stands for this setting: immunohistochemical analysis, mean±SEM, n=25-40, Mdm2 inhibitor 1 μM.

With `CCN(CC)CCO[C@H]1CC[C@@]2(C)C(=CC[C@@H]3[C@@H]2CC[C@]2(C)C(=O)CC[C@@H]32)C1` [U18666A], the “p-p53 levels (immunoblot)” value in assay [1] (5 μM U18666A for 2 min, DIV4 wild-type cortical neurons) was “rapid decrease”. Also, in assay [1] (setting [6]), the “RhoA level (immunoblot)” value is recorded as 418, the “Ubiquitin level (immunoblot)” value came to 435, the “p-4EBP1 level (immunoblot)” value is 389 and the “p-LIMK level (immunoblot)” value amounted to 411. Moreover, in assay [1] (setting [6]), the “p-Mdm2 level (immunoblot)” value came to 549, the “p-p38 level (immunoblot)” value came out at 493, the “p-p53Δ level (immunoblot)” value is recorded as 775 and the “t-p38 level (immunoblot)” value was determined as 107. For the same compound, the “t-p53 level (immunoblot)” value in assay [1] (setting [6]) came to 94. Further, in assay [2] (neurons transfected with EGFP-vector or p53-R175H), the “growth cone collapse (share of neurons)” value was “about 80%”. The “growth cone collapse (share of neurons)” value in assay [2] (neurons transfected with wild-type p53) is given as 20%. Also, the growth cone collapse in assay [2] (5 μM U18666A for 2 min, DIV4, no inhibitor) was 72±2%. Besides, the “levels of "mutant" p53 in axons and growth cones” value in assay [3] (5 μM U18666A for 2 min, DIV4) is recorded as “markedly reduced”. For the same compound, the “p-4EBP1 levels in axons and growth cones” value in assay [3] (5 μM U18666A for two min) is “increased”. The “levels of p-p38 and p-Mdm2 in axons and growth cones” value in assay [3] (5 μM U18666A for two min vs vehicle-treated controls) is “increased”. Besides, in assay [3] (setting [7]), the “RhoA levels in axons, percentage of control vehicle-treated neurons” value was 640±56% and the “RhoA levels in growth cones, percentage of control vehicle-treated neurons” value was found to be 257±37%. Besides, in the assay on hippocampal neurons, the “filipin fluorescence intensity (cholesterol) in axons and collapsed growth cones” value is “marked decrease”.

As for `C[C@@H](N)[C@H]1CC[C@H](C(=O)Nc2ccncc2)CC1.Cl.Cl` [Y-27632, trans-4-[(1R)-1-Aminoethyl]-N-4-pyridinylcyclohexanecarboxamide dihydrochloride], in assay [1] (pre-treatment with Y-27632), the “effect on U18666A-induced increase in levels of phosphorylated LIM kinase (immunoblot)” value is “significantly reduced”; the “effect on U18666A-induced increase in p38 and Mdm2 phosphorylation, protein ubiquitination and RhoA levels (immunoblot)” value is given as “did not block”; the “effect on U18666A-induced p-p53 truncation (immunoblot)” value is reported as “significantly reduced”. Also, the growth cone collapse in assay [2] (Y-27632 10 μM pre-incubation for 2 h, then 5 μM U18666A for 2 min, DIV4) is on record as 41±1%. Further, the growth cone collapse in assay [4] stood at 48±1%. The “effect on U18666A-induced decrease in p-p53 immunoreactivity in axons and growth cones” value in assay [3] (Y-27632 10 μM 2 h pretreatment, 5 μM U18666A 2 min) is “reversed”. In addition, in assay [3] (pre-incubation with 10 μM Y27632), the “effect on U18666A-induced reduction of "mutant" p53 in axons and growth cones” value is given as “blocked”. The “p-p53 immunoreactivity in axons and growth cones” value in assay [5] is recorded as “increased”.

The values above are taken from patent publication US20120010196A1, “METHODS OF TREATING NEURODEGENERATIVE DISORDERS AND DISEASES” (priority 2010, published 2012).
